Test results: US11634447B2 (priority 2012, dated 2023)
pIC50: −log10 of the molar value.

What follows are molecules tested on bacterial strain LF82 binding to the glycoprotein BSA-(Mannose)3 (assay: Bacterial Binding Assay (BBA)). Details: read-out: Bacterial Binding Assay IC50, LF82/Luciferase strain binding to BSA-(Man)3 coated plates, luminescence.
Format: cell-based, Escherichia coli
Outline: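 Inhibition of LF82/luciferase E. coli adhesion is read as luminescence after washing off unbound cells. Compound and bacteria (10^7 per well) are co-incubated 40-75 min at room temperature on wells coated with 0.5-2 μg/mL BSA-(Man)3, with BSA-only wells as background; IC50 values derived.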

Structure (SMILES) | pIC50
Cc1cc(-c2cccc(-c3ccc([C@H]4O[C@H](CO)[C@@H](O)[C@H](O)[C@@H]4O)c(C)c3)n2)ccc1[C@H]1O[C@H](CO)[C@@H](O)[C@H](O)[C@@H]1O [Compound 154, (2R,3S,4R,5S,6R)-2-(hydroxymethyl)-6-[2-methyl-4-[6-[3-methyl-4-[(2R,3S,4R,5S,6R)-3,4,5-trihydroxy-6-(hydroxymethyl)tetrahydropyran-2-yl]phenyl]-2-pyridyl]phenyl]tetrahydropyran-3,4,5-triol] | 7.36
Cc1cc(-c2ccc(-c3ccc([C@H]4O[C@H](CO)[C@@H](O)[C@H](O)[C@@H]4O)c(C)c3)c(C)n2)ccc1[C@H]1O[C@H](CO)[C@@H](O)[C@H](O)[C@@H]1O [Compound 155, (2R,3S,4R,5S,6R)-2-(hydroxymethyl)-6-[2-methyl-4-[2-methyl-6-[3-methyl-4-[(2R,3S,4R,5S,6R)-3,4,5-trihydroxy-6-(hydroxymethyl)tetrahydropyran-2-yl]phenyl]-3-pyridyl]phenyl]tetrahydropyran-3,4,5-triol] | 7.66
Cc1cc(C2CC2c2ccc([C@H]3O[C@H](CO)[C@@H](O)[C@H](O)[C@@H]3O)cc2)ccc1[C@H]1O[C@H](CO)[C@@H](O)[C@H](O)[C@@H]1O (stereo partly drawn) [Compound 156] | 7.74
Cc1cc(-c2ccc(-c3ccc([C@H]4O[C@H](CO)[C@@H](O)[C@H](O)[C@@H]4O)c(C)c3)nc2)ccc1[C@H]1O[C@H](CO)[C@@H](O)[C@H](O)[C@@H]1O [Compound 157, (2R,3S,4R,5S,6R)-2-(hydroxymethyl)-6-[2-methyl-4-[6-[3-methyl-4-[(2R,3S,4R,5S,6R)-3,4,5-trihydroxy-6-(hydroxymethyl)tetrahydropyran-2-yl]phenyl]-3-pyridyl]phenyl]tetrahydropyran-3,4,5-triol] | 8.00
OC[C@H]1O[C@H](C#Cc2ccc(C#C[C@H]3O[C@H](CO)[C@@H](O)[C@H](O)[C@@H]3O)c(Cc3ccccc3)c2)[C@@H](O)[C@@H](O)[C@@H]1O [Compound 158, (2R,3S,4R,5S,6R)-2-[2-[3-benzyl-4-[2-[(2R,3S,4R,5S,6R)-3,4,5-trihydroxy-6-(hydroxymethyl)tetrahydropyran-2-yl]ethynyl]phenyl]ethynyl]-6-(hydroxymethyl)tetrahydropyran-3,4,5-triol] | 7.96
Cc1cc(/C=C/c2ccc([C@H]3O[C@H](CO)[C@@H](O)[C@H](O)[C@@H]3O)c(C)c2)ccc1[C@H]1O[C@H](CO)[C@@H](O)[C@H](O)[C@@H]1O [Compound 159, (2R,3S,4R,5S,6R)-2-(hydroxymethyl)-6-[2-methyl-4-[(E)-2-[3-methyl-4-[(2R,3S,4R,5S,6R)-3,4,5-trihydroxy-6-(hydroxymethyl)tetrahydropyran-2-yl]phenyl]vinyl]phenyl]tetrahydropyran-3,4,5-triol] | 7.34
Cc1cc(C2CC2c2ccc([C@H]3O[C@H](CO)[C@@H](O)[C@H](O)[C@@H]3O)c(C)c2)ccc1[C@H]1O[C@H](CO)[C@@H](O)[C@H](O)[C@@H]1O (stereo partly drawn) [Compound 160, (2R,3S,4R,5S,6R)-2-(hydroxymethyl)-6-[2-methyl-4-[2-[3-methyl-4-[(2R,3S,4R,5S,6R)-3,4,5-trihydroxy-6-(hydroxymethyl)tetrahydropyran-2-yl]phenyl]cyclopropyl]phenyl]tetrahydropyran-3,4,5-triol] | 7.77
O=S1(=O)c2cc(C#C[C@H]3O[C@H](CO)[C@@H](O)[C@H](O)[C@@H]3O)ccc2-c2ccc(C#C[C@H]3O[C@H](CO)[C@@H](O)[C@H](O)[C@@H]3O)cc21 [Compound 161, (2R,3S,4R,5S,6R)-2-[2-[5,5-dioxo-7-[2-[(2R,3S,4R,5S,6R)-3,4,5-trihydroxy-6-(hydroxymethyl)tetrahydropyran-2-yl]ethynyl]dibenzothiophen-3-yl]ethynyl]-6-(hydroxymethyl)tetrahydropyran-3,4,5-triol] | 7.92
OC[C@H]1O[C@H](C#Cc2ccc3c(c2)C2(CCOCC2)c2cc(C#C[C@H]4O[C@H](CO)[C@@H](O)[C@H](O)[C@@H]4O)ccc2-3)[C@@H](O)[C@@H](O)[C@@H]1O [Compound 162, (2R,2,3S,3,4R,4,5S,5,6R,6)-6,6((2tetrahydrospiro[fluorene-9,4pyran]-2,7-diyl)bis(ethyne-2,1-diyl))bis(2-(hydroxymethyl)tetrahydro-2H-pyran-3,4,5-triol)] | 9.96
OC[C@H]1O[C@H](C#Cc2ccc3c(c2)C(=NO)c2cc(C#C[C@H]4O[C@H](CO)[C@@H](O)[C@H](O)[C@@H]4O)ccc2-3)[C@@H](O)[C@@H](O)[C@@H]1O [Compound 163, 2,7-bis[2-[(2R,3S,4R,5S,6R)-3,4,5-trihydroxy-6-(hydroxymethyl)tetrahydropyran-2-yl]ethynyl]fluoren-9-one oxime] | 7.74
OC[C@H]1O[C@H](C#Cc2ccc3c(c2)c2cc(C#C[C@H]4O[C@H](CO)[C@@H](O)[C@H](O)[C@@H]4O)ccc2n3-c2ccccc2)[C@@H](O)[C@@H](O)[C@@H]1O [Compound 164] | 7.46
CC(C)C1(O)c2cc(C#C[C@H]3O[C@H](CO)[C@@H](O)[C@H](O)[C@@H]3O)ccc2-c2ccc(C#C[C@H]3O[C@H](CO)[C@@H](O)[C@H](O)[C@@H]3O)cc21 [Compound 165, (2R,3S,4R,5S,6R)-2-[2-[9-hydroxy-9-isopropyl-7[2-[(2R,3S,4R,5S,6R)-3,4,5-trihydroxy-6-(hydroxymethyl)tetrahydropyran-2-yl]ethynyl]fluoren-2-yl]ethynyl]-6-(hydroxymethyl)tetrahydropyran-3,4,5-triol] | 8.62
CCC1(O)c2cc(C#C[C@H]3O[C@H](CO)[C@@H](O)[C@H](O)[C@@H]3O)ccc2-c2ccc(C#C[C@H]3O[C@H](CO)[C@@H](O)[C@H](O)[C@@H]3O)cc21 [Compound 166, (2R,3S,4R,5S,6R)-2-[2-[9-ethyl-9-hydroxy-7-[2-[(2R,3S,4R,5S,6R)-3,4,5-trihydroxy-6-(hydroxymethyl)tetrahydropyran-2-yl]ethynyl]fluoren-2-yl]ethynyl]-6-(hydroxymethyl)tetrahydropyran-3,4,5-triol] | 8.52
OC[C@H]1O[C@H](C#Cc2ccc3c(c2)C(O)(c2ccccc2)c2cc(C#C[C@H]4O[C@H](CO)[C@@H](O)[C@H](O)[C@@H]4O)ccc2-3)[C@@H](O)[C@@H](O)[C@@H]1O (stereo partly drawn) [Compound 167, (2R,3S,4R,5S,6R)-2-(hydroxymethyl)-6-[2-[9-hydroxy-9-phenyl-7-[2-[(2R,3S,4R,5S,6R)-3,4,5-trihydroxy-6-(hydroxymethyl)tetrahydropyran-2-yl]ethynyl]fluoren-2-yl]ethynyl]tetrahydropyran-3,4,5-triol] | 7.80
CCCC1(O)c2cc(C#C[C@H]3O[C@H](CO)[C@@H](O)[C@H](O)[C@@H]3O)ccc2-c2ccc(C#C[C@H]3O[C@H](CO)[C@@H](O)[C@H](O)[C@@H]3O)cc21 [Compound 168, (2R,3S,4R,5S,6R)-2-(hydroxymethyl)-6-[2-[9-hydroxy-9-propyl-7-[2-[(2R,3S,4R,5S,6R)-3,4,5-trihydroxy-6-(hydroxymethyl)tetrahydropyran-2-yl]ethynyl]fluoren-2-yl]ethynyl]tetrahydropyran-3,4,5-triol] | 8.51
CC(C)CC1(O)c2cc(C#C[C@H]3O[C@H](CO)[C@@H](O)[C@H](O)[C@@H]3O)ccc2-c2ccc(C#C[C@H]3O[C@H](CO)[C@@H](O)[C@H](O)[C@@H]3O)cc21 [Compound 169, (2R,3S,4R,5S,6R)-2-[2-[9-hydroxy-9-isobutyl-7-[2-[(2R,3S,4R,5S,6R)-3,4,5-trihydroxy-6-(hydroxymethyl)tetrahydropyran-2-yl]ethynyl]fluoren-2-yl]ethynyl]-6-(hydroxymethyl)tetrahydropyran-3,4,5-triol] | 9.18
COc1cccc(C2(O)c3cc(C#C[C@H]4O[C@H](CO)[C@@H](O)[C@H](O)[C@@H]4O)ccc3-c3ccc(C#C[C@H]4O[C@H](CO)[C@@H](O)[C@H](O)[C@@H]4O)cc32)c1 [Compound 170, (2R,3S,4R,5S,6R)-2-[2-[9-hydroxy-9-(3-methoxyphenyl)-7-[2-[(2R,3S,4R,5S,6R)-3,4,5-trihydroxy-6-(hydroxymethyl)tetrahydropyran-2-yl]ethynyl]fluoren-2-yl]ethynyl]-6-(hydroxymethyl)tetrahydropyran-3,4,5-triol] | 8.12
OC[C@H]1O[C@H](C#Cc2ccc(C#C[C@H]3O[C@H](CO)[C@@H](O)[C@H](O)[C@@H]3O)c3[nH]ncc23)[C@@H](O)[C@@H](O)[C@@H]1O [Compound 171, (2R,3S,4R,5S,6R)-2-(hydroxymethyl)-6-[2-[7-[2-[(2R,3S,4R,5S,6R)-3,4,5-trihydroxy-6-(hydroxymethyl)tetrahydropyran-2-yl]ethynyl]-1H-indazol-4-yl]ethynyl]tetrahydropyran-3,4,5-triol] | 7.89
Cc1cc(N2CC(=O)N(c3ccc([C@H]4O[C@H](CO)[C@@H](O)[C@H](O)[C@@H]4O)c(C)c3)CC2=O)ccc1[C@H]1O[C@H](CO)[C@@H](O)[C@H](O)[C@@H]1O [Compound 172, 1,4-bis[3-methyl-4-[(2R,3S,4R,5S,6R)-3,4,5-trihydroxy-6-(hydroxymethyl)tetrahydropyran-2-yl]phenyl]piperazine-2,5-dione] | 6.73
CN(C)CC(O)Cn1c2ccc(C#C[C@H]3O[C@H](CO)[C@@H](O)[C@H](O)[C@@H]3O)cc2c2cc(C#C[C@H]3O[C@H](CO)[C@@H](O)[C@H](O)[C@@H]3O)ccc21 (stereo partly drawn) [Compound 173, (2R,3S,4R,5S,6R)-2-[2-[9-[3-(dimethylamino)-2-hydroxy-propyl]-6-[2-[(2R,3S,4R,5S,6R)-3,4,5-trihydroxy-6-(hydroxymethyl)tetrahydropyran-2-yl]ethynyl]carbazol-3-yl]ethynyl]-6-(hydroxymethyl)tetrahydropyran-3,4,5-triol] | 8.03
OCC(O)Cn1c2ccc(C#C[C@H]3O[C@H](CO)[C@@H](O)[C@H](O)[C@@H]3O)cc2c2cc(C#C[C@H]3O[C@H](CO)[C@@H](O)[C@H](O)[C@@H]3O)ccc21 (stereo partly drawn) [Compound 174, (2R,3S,4R,5S,6R)-2-[2-[9-(2,3-dihydroxypropyl)-6-[2-[(2R,3S,4R,5S,6R)-3,4,5-trihydroxy-6-(hydroxymethyl)tetrahydropyran-2-yl]ethynyl]carbazol-3-yl]ethynyl]-6-(hydroxymethyl)tetrahydropyran-3,4,5-triol] | 8.33
